Values after ≈ are worked out from the molar mass of the structure shown. Residues, ends and D or L forms follow the SMILES beside them.
Each compound was assayed on Escherichia coli.
Assay type: cell-based
Procedure: Minimum Inhibitory Concentration (MIC) of these antibacterial peptides (1) to (5) against Staphylococcus aureus, methicillin resistant Staphylococcus aureus (MRSA), Escherichia coli and Pseudomonas aeruginosa was determined.
In the case of `CC[C@H](C)[C@H](NC(=O)[C@H](C)NC(=O)[C@H](CC(C)C)NC(=O)[C@H](CCCNC(=N)N)NC(=O)[C@H](CC(C)C)NC(=O)[C@H](C)N)C(=O)N[C@@H](CCCNC(=N)N)C(=O)N[C@@H](CCCCN)C(=O)N[C@@H](CCCNC(=N)N)C(N)=O` [present peptide (1), Ala Leu Arg Leu Ala Ile Arg Lys Arg] (H-ALRLAIRKR-NH2), the “MIC E coli” value is reported as 4 µg/mL (≈ 3.65 µM). `CC[C@H](C)[C@H](NC(=O)[C@H](C)NC(=O)[C@H](CC(C)C)NC(=O)[C@H](Cc1ccc(O)cc1)NC(=O)[C@H](CC(C)C)NC(=O)[C@H](C)N)C(=O)N[C@@H](CCCNC(=N)N)C(=O)N[C@@H](CCCCN)C(=O)N[C@@H](CCCNC(=N)N)C(N)=O` [present peptide (4), Ala Leu Trp Leu Ala Ile Arg Lys Arg] was tested, and the “MIC E coli” value was 4 µg/mL (≈ 3.63 µM). For `CC[C@H](C)[C@H](NC(=O)[C@H](C)NC(=O)[C@H](CC(C)C)NC(=O)[C@H](CC(C)C)NC(=O)[C@H](CC(C)C)NC(=O)[C@H](C)N)C(=O)N[C@@H](CCCNC(=N)N)C(=O)N[C@@H](CCCCN)C(=O)N[C@@H](CCCNC(=N)N)C(N)=O` [present peptide (2), Ala Leu Leu Leu Ala Ile Arg Lys Arg] (H-ALLLAIRKR-NH2), the “MIC E coli” value was 6 µg/mL (≈ 5.7 µM). In the case of `CC[C@H](C)[C@H](NC(=O)[C@H](C)NC(=O)[C@H](CC(C)C)NC(=O)[C@H](Cc1c[nH]c2ccccc12)NC(=O)[C@H](CC(C)C)NC(=O)[C@H](C)N)C(=O)N[C@@H](CCCNC(=N)N)C(=O)N[C@@H](CCCCN)C(=O)N[C@@H](CCCNC(=N)N)C(N)=O` [present peptide (5), Ala Leu Trp Leu Ala Ile Arg Lys Arg] (H-ALWLAIRKR-NH2), the “MIC E coli” value is reported as 10 µg/mL (≈ 8.89 µM). With `CC[C@H](C)[C@H](NC(=O)[C@H](C)NC(=O)[C@H](CC(C)C)NC(=O)[C@H](CC(C)C)NC(=O)[C@H](Cc1c[nH]c2ccccc12)NC(=O)[C@H](C)N)C(=O)N[C@@H](CCCNC(=N)N)C(=O)N[C@@H](CCCCN)C(=O)N[C@@H](CCCNC(=N)N)C(N)=O` [present peptide (3), Ala Trp Leu Leu Ala Ile Arg Lys Arg] (H-AWLLAIRKR-NH2) the “MIC E coli” value was 5 µg/mL (≈ 4.44 µM).

Reference: patent EP0979831B1, “Antibacterial peptides and antibacterial agents containing such peptides as an effective ingredient” (National Institute of Agrobiological Sciences, priority 1998, dated 2003)
